These are literature values, as cited in EP4692316A1, “MICROCARRIER FOR CELL CULTURE, METHOD FOR PREPARING MICROCARRIER FOR CELL CULTURE, AND CELL CULTURE COMPOSITION USING SAME” (LG Chem, Ltd., priority 2024, dated 2025).

SMILES strings stand for the structures.

One may read the density as the mass of a sample divided by its volume.

The conditions of the series: monomer or oil as supplied.
With `C=Cc1ccc(C)cc1C` [2,4-Dimethylstyrene], the density was 0.906 g/mL. On to `C=Cc1ccc(C(C)(C)C)cc1` [4-tert-butyl styrene], for which the density is 0.875 g/mL. As for `C=Cc1c(C)cc(C)cc1C` [trimethylstyrene], the density is 0.906 g/mL. For `C=Cc1ccc(C)cc1` [methylstyrene], the density is 0.89 to 0.92 g/mL.
